The text below walks through data of PubChem BioAssay AID1259411 (Chemical Carcinogenesis Research Information System (CCRIS), 2018).

Activity calls are given as the source filed them. How the calls were made is not given here.

In the series the test system is rodent carcinogenicity bioassays, tumor incidence. Nature of the series: CCRIS carcinogenicity studies. An outline of the steps: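 Archive of carcinogenicity, mutagenicity, tumor promotion and tumor inhibition results drawn from journals, NCI reports and other sources, expert-reviewed; covers 1985-2011 and is no longer updated.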

Regarding `O=C1NC(=O)C(c2ccccc2)(c2ccccc2)N1`, the carcinogen call is, setting by setting: (Species: MOUSE, Route: INTRAPERITONEAL, ORAL, Tumor Site: Type of Lesion: HEMATOPOIETIC SYSTEM (LEUKEMIA), LYMPHATIC SYSTEM: LYMPHOMA) “active; positive”; (Species: MOUSE, Strain/Sex: B6C3F1/FEMALE, Route: IN UTERO, ORAL, Dose: 0, 21 PPM IN DIET FED TO MOTHERS 1 WK BEFORE BREEDING, THROUGH BREEDING, GESTATION AND LACTATION, THEN DIETS WITH 60 PPM) “inactive; negative”; (Species: MOUSE, Strain/Sex: B6C3F1/FEMALE, Route: IN UTERO, ORAL, Dose: 0, 70 PPM IN DIET FED TO MOTHERS 1 WK BEFORE BREEDING, THROUGH BREEDING, GESTATION AND LACTATION, THEN DIETS WITH 200 PP) “inactive; negative”; (Species: MOUSE, Strain/Sex: B6C3F1/FEMALE, Route: IN UTERO, ORAL, Dose: 0, 210 PPM IN DIET FED TO MOTHERS 1 WK BEFORE BREEDING, THROUGH BREEDING, GESTATION AND LACTATION, THEN DIETS WITH 0, 20, Tumor Site: Type of Lesion: LIVER: HEPATOCELLULAR ADENOMA, HEPATOCELLULAR CARCINOMA) “active; positive”; (Species: MOUSE, Strain/Sex: B6C3F1/FEMALE, Route: ORAL, Dose: 0, 200, 600 PPM IN DIET FOR 2 YR (STUDY DURATION: 2 YR), Dose: 0, 200, 600 PPM IN DIET FOR 2 YR (STUDY DURATION: 2 YR), Tumor Site: Type of Lesion: LIVER: HEPATOCELLULAR ADENOMA, HEPATOCELLULAR CARCINOMA) “active; positive”; (Species: MOUSE, Strain/Sex: B6C3F1/MALE, Route: IN UTERO, ORAL, Dose: 0, 21 PPM IN DIET FED TO MOTHERS 1 WK BEFORE BREEDING, THROUGH BREEDING, GESTATION AND LACTATION, THEN DIETS WITH 30 PPM) “inactive; negative”. Besides, the carcinogen call runs as follows: (Species: MOUSE, Strain/Sex: B6C3F1/MALE, Route: IN UTERO, ORAL, Dose: 0, 70 PPM IN DIET FED TO MOTHERS 1 WK BEFORE BREEDING, THROUGH BREEDING, GESTATION AND LACTATION, THEN DIETS WITH 100 PP) “inactive; negative”; (Species: MOUSE, Strain/Sex: B6C3F1/MALE, Route: IN UTERO, ORAL, Dose: 0, 210 PPM IN DIET FED TO MOTHERS 1 WK BEFORE BREEDING, THROUGH BREEDING, GESTATION AND LACTATION, THEN DIETS WITH 0, 10) “inactive; negative”; (Species: MOUSE, Strain/Sex: B6C3F1/MALE, Route: ORAL, Dose: 0, 100, 300 PPM IN DIET FOR 2 YR (STUDY DURATION: 2 YR), Dose: 0, 100, 300 PPM IN DIET FOR 2 YR (STUDY DURATION: 2 YR)) “inactive; negative”; (Species: RAT, Strain/Sex: F344/DUCRJ/FEMALE, Route: ORAL, Dose: 0, 0.025, 0.05% IN BASAL DIET FOR 2 YR (STUDY DURATION: 112 WK), Dose: 0, 0.025, 0.05% IN BASAL DIET FOR 2 YR (STUDY DURATION: 112 WK)) “inactive; negative”; (Species: RAT, Strain/Sex: F344/DUCRJ/MALE, Route: ORAL, Dose: 0, 0.025, 0.05% IN BASAL DIET FOR 2 YR (STUDY DURATION: 112 WK), Dose: 0, 0.025, 0.05% IN BASAL DIET FOR 2 YR (STUDY DURATION: 112 WK)) “inactive; negative”; (Species: RAT, Strain/Sex: F344/FEMALE, Route: IN UTERO, ORAL, Dose: 0, 63 PPM IN DIET FED TO MOTHERS 1 WK BEFORE BREEDING, THROUGH BREEDING, GESTATION AND LACTATION, THEN DIETS WITH 240 PP) “inactive; negative”. Besides, the carcinogen call reads like this: (Species: RAT, Strain/Sex: F344/FEMALE, Route: IN UTERO, ORAL, Dose: 0, 210 PPM IN DIET FED TO MOTHERS 1 WK BEFORE BREEDING, THROUGH BREEDING, GESTATION AND LACTATION, THEN DIETS WITH 800 P) “inactive; negative”; (Species: RAT, Strain/Sex: F344/FEMALE, Route: IN UTERO, ORAL, Dose: 0, 630 PPM IN DIET FED TO MOTHERS 1 WK BEFORE BREEDING, THROUGH BREEDING, GESTATION AND LACTATION, THEN DIETS WITH 0, 80) “inactive; negative”; (Species: RAT, Strain/Sex: F344/FEMALE, Route: ORAL, Dose: 0, 800, 2400 PPM IN DIET FOR 2 YR (STUDY DURATION: 2 YR), Dose: 0, 800, 2400 PPM IN DIET FOR 2 YR (STUDY DURATION: 2 YR)) “inactive; negative”; (Species: RAT, Strain/Sex: F344/MALE, Route: IN UTERO, ORAL, Dose: 0, 63 PPM IN DIET FED TO MOTHERS 1 WK BEFORE BREEDING, THROUGH BREEDING, GESTATION AND LACTATION, THEN DIETS WITH 240 PP) “inactive; negative”; (Species: RAT, Strain/Sex: F344/MALE, Route: IN UTERO, ORAL, Dose: 0, 210 PPM IN DIET FED TO MOTHERS 1 WK BEFORE BREEDING, THROUGH BREEDING, GESTATION AND LACTATION, THEN DIETS WITH 800 P) “inactive; negative”; (Species: RAT, Strain/Sex: F344/MALE, Route: IN UTERO, ORAL, Dose: 0, 630 PPM IN DIET FED TO MOTHERS 1 WK BEFORE BREEDING, THROUGH BREEDING, GESTATION AND LACTATION, THEN DIETS WITH 0, 80) “inactive; negative”. In addition, the carcinogen call (Species: RAT, Strain/Sex: F344/MALE, Route: ORAL, Dose: 0, 800, 2400 PPM IN DIET FOR 2 YR (STUDY DURATION: 2 YR), Dose: 0, 800, 2400 PPM IN DIET FOR 2 YR (STUDY DURATION: 2 YR), Tumor Site: Type of Lesion: LIVER: HEPATOCELLULAR ADENOMA OR CARCINOMA) is “equivocal”.

Regarding `Clc1ccc(C(c2ccc(Cl)cc2)C(Cl)(Cl)Cl)cc1`, the carcinogen call was “active; positive” (Species: MOUSE, Strain/Sex: B6AKF1/MALE,FEMALE, Route: GAVAGE/ORAL, Dose: 46.4 MG/KG FROM D 7-28 OF LIFE THEN 140 PPM IN DIET, Tumor Site: Type of Lesion: LIVER: HEPATOMA); “inactive; negative” (Species: MOUSE, Strain/Sex: B6C3F1/FEMALE, Route: ORAL, Dose: 0, 87, 175 PPM IN DIET, TWA, Dose: 0, 87, 175 PPM IN DIET, TWA); “active; positive” (Species: MOUSE, Strain/Sex: B6C3F1/MALE,FEMALE, Route: GAVAGE/ORAL, Dose: 46.4 MG/KG FROM D 7-28 OF LIFE THEN 140 PPM IN DIET, Tumor Site: Type of Lesion: LIVER: HEPATOMA); “inactive; negative” (Species: MOUSE, Strain/Sex: B6C3F1/MALE, Route: ORAL, Dose: 0, 22, 90 PPM IN DIET, TWA, Dose: 0, 22, 90 PPM IN DIET, TWA); “active; positive” (Species: MOUSE, Strain/Sex: BALB/MALE, Route: ORAL, Dose: 0, 175 PPM IN ACETONE ADDED TO DIET FOR 8 WK THEN BY 125 PPM FOR 8 WK AND 100 PPM FOR 59 WK (STUDY DURATION: 75 WK), Tumor Site: Type of Lesion: LIVER: HEPATOCELLULAR ADENOMA, HEPATOCELLULAR CARCINOMA); “active; positive” (Species: MOUSE, Strain/Sex: CF-1/MALE,FEMALE, Route: DIET, Dose: 0, 50, 100 PPM FOR 2 YR, Tumor Site: Type of Lesion: LIVER). Besides, the carcinogen call runs as follows: (Species: MOUSE, Strain/Sex: CF-1/MALE,FEMALE, Route: DIET, Dose: 100 PPM FOR 110 WK, Tumor Site: Type of Lesion: LIVER) “active; positive”; (Species: RAT, Route: ORAL, Tumor Site: Type of Lesion: LIVER) “active; positive”; (Species: RAT, Strain/Sex: OSBORNE-MENDEL/FEMALE, Route: ORAL, Dose: 0, 210, 420 PPM IN DIET, TWA, Dose: 0, 210, 420 PPM IN DIET, TWA) “inactive; negative”; (Species: RAT, Strain/Sex: OSBORNE-MENDEL/MALE, Route: ORAL, Dose: 0, 321, 642 PPM IN DIET, TWA, Dose: 0, 321, 642 PPM IN DIET, TWA) “inactive; negative”.

`O=NN1CCOC1`: the carcinogen call by setting is: (Species: HAMSTER, Strain/Sex: SYRIAN/MALE, Route: INTRAGASTRIC, Dose: 0, 23 MG/ML IN 0.2 ML STERILIZED WATER 1/WK FOR 35 WK (TOTAL DOSE 161 MG) (STUDY DURATION: LIFESPAN), Tumor Site: Type of Lesion: LIVER: HEPATOCELLULAR CARCINOMA, ADENOMA, HEMANGIOSARCOMA, CHOLANGIOCARCINOMA) “active; positive”; (Species: RAT, Strain/Sex: F344/FEMALE, Route: ORAL, Dose: 35 MG/L IN DRINKING WATER FOR 50 WK, Tumor Site: Type of Lesion: LIVER: HEPATOCELLULAR CARCINOMA, HEMANGIOENDOTHELIAL SARCOMA) “active; positive”.
